Here are results for one substance from patent publication US6620792B1, “Pharmaceutical compositions containing monosialoganglioside GM1 or derivative thereof suitable for the treatment of parkinson's disease” (Fidia S.p.A., priority 1992, dated 2003).

The test system of experiment [1] is MPTP-treated squirrel monkeys. Put plainly: motor behaviour rating of MPTP-treated squirrel monkeys. It counts as in vivo. Here is the method:
In vivo experiments with GM1 were carried out on 15 (male or female) squirrel monkeys and 4 cynomolgus monkeys.
The monkeys were administered MPTP saline solution after being anaesthesized i.m. with ketamine HCl 5 mg/kg, as follows:
2 mg/kg/dose, i.m. (squirrel monkeys).
MPTP was administered every third day until complete manifestation of parkinsonian motor symptomatology was obtained, i.e. akinesia, lack of responsiveness to stimulation, inability to climb, to feed autonomously, and to groom. Thirty points min. (as will be defined in the explanation of FIG. 1) had to be obtained during the 48-60 hours following the last MPTP administration; then animals in pairs were subdivided at random into two treatment groups, i.e. treatment with GM1 or with saline solution. […]
In particular, the following functions were recorded: overall activity, ability to climb, locomotion/gait, upper and lower limb movements, detailed motor ability, bradykinesia/akinesia, dyskinesia/dystonia, carriage, tremor, balance, grooming ability, sudden immobility during movements, and ability to feed. […]
FIGS. 1 and 2 are now being considered in detail. […] Columns represent the average points (±S.D.); normal point is 0, MPTP points are the points recorded after the last MPTP injection but prior to the administration of associated GM1-saline solution. […]

The test system of another experiment is cerebellar granule cells. The experiment can be described thus: TOPA neurotoxicity in cerebellar granule cell cultures, MTT assay. Format: cell-based. As to conditions: for Neuronal survival (%): control = 100%. Here is the method: Granular cell cultures were obtained from 8-day rat cerebella and cultured (3×10^6 cells) on plates coated with poly-L-lysine substrate according to Skaper et al. (Skaper S. D. et al.: “Culture and use of primary and clonal neural cells”, Methods in Neurosciences, Ed. by P. M. Conn, Vol. 2, pp. 17-33, Academic Press, Orlando, 1990).
Twenty-four hours later, cytosine arabinoside (10 μM) was added to inhibit non-neuronal proliferation. Cerebellar granule cells were used 10-12 days later without changing the medium.
Cells were incubated with TOPA either for 40 minutes (100 μM acute exposure) or for 24 h (10 μM prolonged exposure).
Treatment with GM1, AGF2, AGF4 (100 μM) and LIGA 20 (1-30 μm) was carried out as follows:
2-hour pretreatment before acute incubation with TOPA;
cotreatment only with LIGA 20 before acute incubation with TOPA;
pretreatment with/without cotreatment before (100 μM for 2 h) and/or during (100 μM for 24 h) prolonged incubation with TOPA. TOPA cytotoxicity was determined by evaluating cellular survival, and more precisely:
MTT colorimetric assay of cerebellar neurons, as described by Mosmann (Mosmann T.: “Rapid colorimetric assay for cellular growth and survival: application to proliferation and cytotoxicity assays”, J. Immunol. Meth., 65, 55-63, 1983).
Cytotoxicity is expressed as per cent cellular survival.
The results of the two tests (in triplicate) were analysed statistically according to Duncan's test. A brief description of same is reported below:
In FIG. 3 the dose-dependent protective effect of LIGA20 against TOPA-induced death of cultured cerebellar granule cells is represented. Cells were exposed concurrently to 100 μM TOPA and 1-30 μM LIGA20 or 200 μM GM1 in Locke's solution for 45 minutes (24° C.), washed and returned to their original medium. Survival was assessed 24 h later by the MTT method. Means±S.E.M. (n=9, 3 experiments). TOPA ( ), LIGA 20 ( ), GM1 ( ).
In vitro granule cells at the 11th day were incubated as indicated above. In the 40-minute exposure to TOPA, GM1 (100 μM) was used in 2-h pretreatment only. In the […] exposure to TOPA, GM1 (100 μM) was used either in 2-h pretreatment only or in 2-h pretreatment and in cotreatment with TOPA. The values are expressed with reference to the corresponding control cultures (=100%) and are an average (±S.D.) of two determinations, each being carried out in triplicate.

Experiment [2] deals with MPTP-treated squirrel monkeys. The experiment can be described thus: food grasping test in MPTP-treated squirrel monkeys. The conditions noted are these: GM1 30 mg/kg/day i.m., investigation end. Format: in vivo. Here is the method: Tests on squirrel monkeys, which concerned simple motor functions (e.g. capability of grasping food placed in deep containers), were intended to determine the response time and evaluate limb functional use. In particular, monkeys were trained to grasp raisins from a Plexiglas platform accommodating 9.5 mm dia. wells. The time taken to start grasping and the number of raisins grasped in a 6-minute time limit were recorded. All the aforesaid tests were carried out before the first meal of the day.
Normal monkeys started response on sighting the food container.
Normal squirrel monkeys succeeded in grasping 100% food. Soon after MPTP administration, all monkeys were endangered and grasped approx. 15% food. Within the third week of treatment, the monkeys treated with GM1—compared with those treated with saline solution—grasped a higher amount of food. At the investigation end, the former grasped 100% food whereas the latter grasped only 25% food (*p<0.05).

Take monosialoganglioside [GM1]: in experiment [1] (GM1 30 mg/kg/day i.m., p<0.01 vs saline solution), the “motor behaviour at the investigation end” value is recorded as “almost normal behaviour”. In addition, in experiment [1] (GM1 chronic i.m. administration, end of 6-8 weeks' investigation, MPTP monkeys, species not separated (FIG. 1)), the recovered motor behaviour is 86-89%. Further, the “Neuronal survival (%)” value in the experiment on cerebellar granule cells (GM1 100 μM 2-h pretreatment and cotreatment, TOPA 10 μM 24-h exposure) is listed as 75.4 ± 5.5 (b) %; with cerebellar granule cells (GM1 100 μM 2-h pretreatment only, TOPA 10 μM 24-h exposure), 57.0 ± 6.5 (a) %; with cerebellar granule cells (GM1 100 μM 2-h pretreatment only, then TOPA 100 μM 40-minute exposure) it was 72.4 ± 5.8 (a) %. Also, the “protection against the acute toxicity of TOPA in cotreatment” value with cerebellar granule cells (GM1 up to 200 μM, cotreatment with 100 μM TOPA for 45 minutes (FIG. 3)) is recorded as “not active”. Further, in experiment [2] (p<0.002 vs saline solution), the “response start time in food grasping test” value is on record as “started response almost immediately”. The “food per cent amount grasped during the test” value in experiment [2] (saline solution 25%, normal 100%) turned out to be 100%.
